Patent US9156845B2, “4-(substituted amino)-7H-pyrrolo[2,3-d] pyrimidines as LRRK2 inhibitors” (Pfizer Inc., priority 2012, dated 2015)

Assays:
MARK3 = MARK3 (Homo sapiens (Human), UniProt P27448); experiment: ActivX kinase probe assay (human PBMC); type: binding; settings: MARK3, read-out: percent inhibition
MSK1 domain1 = MSK1 domain1 (Homo sapiens (Human), UniProt O75582); experiment: ActivX kinase probe assay (human PBMC); type: binding; settings: MSK1 domain1, read-out: percent inhibition
IKKe = IKKe (Homo sapiens (Human), UniProt Q14164); experiment: ActivX kinase probe assay (human PBMC); type: binding; settings: IKKe, read-out: percent inhibition
HPK1 = HPK1 (Homo sapiens (Human), UniProt Q92918); experiment: ActivX kinase probe assay (human PBMC); type: binding; settings: HPK1, read-out: percent inhibition
TLK1 = TLK1 (Homo sapiens (Human), UniProt Q9UKI8); experiment: ActivX kinase probe assay (human PBMC); type: binding; settings: TLK1, read-out: percent inhibition
PIK3C3 = PIK3C3 (Homo sapiens (Human), UniProt Q8NEB9); experiment: ActivX kinase probe assay (human PBMC); type: binding; settings: PIK3C3, read-out: percent inhibition
Sequence of PIK3C3 (Q8NEB9 whole entry): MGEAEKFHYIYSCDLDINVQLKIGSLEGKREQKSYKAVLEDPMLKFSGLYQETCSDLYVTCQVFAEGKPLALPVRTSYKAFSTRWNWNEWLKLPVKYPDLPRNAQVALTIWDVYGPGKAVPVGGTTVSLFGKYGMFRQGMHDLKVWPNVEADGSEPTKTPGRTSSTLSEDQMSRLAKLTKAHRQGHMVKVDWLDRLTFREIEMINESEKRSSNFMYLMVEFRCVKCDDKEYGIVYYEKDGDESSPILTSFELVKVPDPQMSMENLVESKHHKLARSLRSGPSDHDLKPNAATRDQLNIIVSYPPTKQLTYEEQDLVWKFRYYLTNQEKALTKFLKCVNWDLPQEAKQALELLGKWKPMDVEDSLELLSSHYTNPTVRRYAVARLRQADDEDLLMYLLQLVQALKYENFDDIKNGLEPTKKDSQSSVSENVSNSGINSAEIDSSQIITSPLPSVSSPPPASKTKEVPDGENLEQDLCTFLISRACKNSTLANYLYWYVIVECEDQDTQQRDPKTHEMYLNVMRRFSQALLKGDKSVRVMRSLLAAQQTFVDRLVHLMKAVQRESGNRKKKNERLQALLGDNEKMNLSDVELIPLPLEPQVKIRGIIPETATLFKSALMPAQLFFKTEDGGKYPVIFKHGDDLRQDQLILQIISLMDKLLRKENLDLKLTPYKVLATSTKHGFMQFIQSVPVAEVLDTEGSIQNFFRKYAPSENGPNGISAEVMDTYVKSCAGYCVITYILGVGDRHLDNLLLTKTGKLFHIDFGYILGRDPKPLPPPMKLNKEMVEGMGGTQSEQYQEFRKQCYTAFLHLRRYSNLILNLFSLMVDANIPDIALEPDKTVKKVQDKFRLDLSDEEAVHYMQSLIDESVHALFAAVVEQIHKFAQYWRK

TAO1, TAO3 = experiment: ActivX kinase probe assay (human PBMC); type: binding
DNAPK = DNAPK (Homo sapiens (Human), UniProt P78527); experiment: ActivX kinase probe assay (human PBMC); type: binding; settings: DNAPK, read-out: percent inhibition
ILK = ILK (Homo sapiens (Human), UniProt Q13418); experiment: ActivX kinase probe assay (human PBMC); type: binding; settings: ILK, read-out: percent inhibition
Sequence of ILK (Q13418 whole entry): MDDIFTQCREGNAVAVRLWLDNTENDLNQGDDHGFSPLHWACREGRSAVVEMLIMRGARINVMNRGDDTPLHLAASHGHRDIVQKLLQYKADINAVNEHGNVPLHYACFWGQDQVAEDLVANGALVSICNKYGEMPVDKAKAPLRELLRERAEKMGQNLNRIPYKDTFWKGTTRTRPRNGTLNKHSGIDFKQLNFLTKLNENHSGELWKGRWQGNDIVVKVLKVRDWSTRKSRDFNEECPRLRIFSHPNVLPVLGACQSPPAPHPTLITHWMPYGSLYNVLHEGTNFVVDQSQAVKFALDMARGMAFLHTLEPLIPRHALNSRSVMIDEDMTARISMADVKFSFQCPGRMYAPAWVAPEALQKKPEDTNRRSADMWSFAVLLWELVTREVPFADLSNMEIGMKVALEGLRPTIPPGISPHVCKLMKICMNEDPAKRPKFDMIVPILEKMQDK

EphA1 = EphA1 (Homo sapiens (Human), UniProt P21709); experiment: ActivX kinase probe assay (human PBMC); type: binding; settings: EphA1, read-out: percent inhibition
STLK5 = STLK5 (Homo sapiens (Human), UniProt Q7RTN6); experiment: ActivX kinase probe assay (human PBMC); type: binding; settings: STLK5, read-out: percent inhibition
AKT2, AKT3 = experiment: ActivX kinase probe assay (human PBMC); type: binding
[1] = biological target: GST-tagged truncated LRRK2 (Homo sapiens (Human), UniProt Q5S007); experiment: LRRK2 Lantha Screen kinase assay; type: biochemical; settings: geometric mean of 2-5 determinations unless otherwise indicated (a: >=6 determinations; b: single determination); read-out: LRRK2 WT IC50
Description: LRRK2 kinase activity was measured using Lantha Screen technology from Invitrogen. GST-tagged truncated LRRK2 from Invitrogen (Cat # PV4874) was incubated with a fluorescein-labeled peptide substrate based upon ezrin/radixin/moesin (ERM), also known as LRRKtide (Invitrogen cat #PR8976A), in the presence of a dose response of compound. Upon completion, the assay was stopped and detected with a terbium labeled anti-phospho-ERM antibody (Invitrogen, cat #PR8975A). […] Aliquots (3.5 μL) of the 100% DMSO dose response were mixed with 46.5 μL water then 1 μL of this mixture was added to the 3 μL substrate mix in the 384-well plate. The kinase reaction was started with 3 μL of a working solution of LRRK2 enzyme at a concentration of 4 μg/mL. […] The reaction was allowed to progress at room temperature for two hours and then stopped with the addition of 7 μL of detection buffer (20 mM Tris pH 7.6, 0.01% NP-40, 0.02% NaN3, 6 mM EDTA with 2 nM terbium labeled anti-phospho-ERM).

MAP3K1 = MAP3K1 (Homo sapiens (Human), UniProt Q13233); experiment: ActivX kinase probe assay (human PBMC); type: binding; settings: MAP3K1, read-out: percent inhibition
Sequence of MAP3K1 (Q13233 whole entry, the tested form may be a part): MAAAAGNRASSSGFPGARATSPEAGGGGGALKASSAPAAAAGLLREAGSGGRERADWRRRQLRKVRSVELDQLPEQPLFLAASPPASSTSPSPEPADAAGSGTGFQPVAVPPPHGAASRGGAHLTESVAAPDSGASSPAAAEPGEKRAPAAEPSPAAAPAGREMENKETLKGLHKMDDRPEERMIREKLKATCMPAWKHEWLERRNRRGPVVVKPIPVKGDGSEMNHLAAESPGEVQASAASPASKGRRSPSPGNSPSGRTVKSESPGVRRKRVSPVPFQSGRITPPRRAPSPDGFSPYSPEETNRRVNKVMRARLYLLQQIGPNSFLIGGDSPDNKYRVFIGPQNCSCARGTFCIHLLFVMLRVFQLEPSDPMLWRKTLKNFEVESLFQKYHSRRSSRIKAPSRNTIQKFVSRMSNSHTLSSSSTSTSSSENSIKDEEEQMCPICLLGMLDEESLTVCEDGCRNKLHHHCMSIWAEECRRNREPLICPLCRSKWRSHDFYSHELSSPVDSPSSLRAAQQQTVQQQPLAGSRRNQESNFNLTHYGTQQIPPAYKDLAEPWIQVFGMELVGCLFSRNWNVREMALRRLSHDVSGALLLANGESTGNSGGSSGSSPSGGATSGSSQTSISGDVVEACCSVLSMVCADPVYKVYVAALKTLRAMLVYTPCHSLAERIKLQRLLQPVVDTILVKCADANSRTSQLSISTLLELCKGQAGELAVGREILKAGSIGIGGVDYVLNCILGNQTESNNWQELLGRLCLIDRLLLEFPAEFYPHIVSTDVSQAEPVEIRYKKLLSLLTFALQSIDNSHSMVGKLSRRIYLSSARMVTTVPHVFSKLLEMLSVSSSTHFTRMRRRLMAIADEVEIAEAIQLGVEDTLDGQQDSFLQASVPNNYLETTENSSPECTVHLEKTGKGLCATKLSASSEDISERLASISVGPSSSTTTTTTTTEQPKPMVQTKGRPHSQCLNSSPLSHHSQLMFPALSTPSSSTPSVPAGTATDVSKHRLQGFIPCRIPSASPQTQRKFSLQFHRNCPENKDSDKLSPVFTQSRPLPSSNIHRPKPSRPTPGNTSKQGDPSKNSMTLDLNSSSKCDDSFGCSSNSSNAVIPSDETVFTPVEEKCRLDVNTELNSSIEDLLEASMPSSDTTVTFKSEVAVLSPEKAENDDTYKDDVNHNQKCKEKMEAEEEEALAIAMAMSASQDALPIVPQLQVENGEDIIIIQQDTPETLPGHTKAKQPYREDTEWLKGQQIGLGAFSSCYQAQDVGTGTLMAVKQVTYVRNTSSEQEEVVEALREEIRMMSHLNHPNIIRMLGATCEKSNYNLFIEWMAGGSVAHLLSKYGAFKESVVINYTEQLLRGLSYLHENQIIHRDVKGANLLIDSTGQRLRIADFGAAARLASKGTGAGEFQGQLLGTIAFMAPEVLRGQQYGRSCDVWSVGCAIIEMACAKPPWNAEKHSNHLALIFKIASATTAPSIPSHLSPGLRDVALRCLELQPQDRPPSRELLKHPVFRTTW

RSK1 domain1 = RSK1 domain1 (Homo sapiens (Human), UniProt Q15418); experiment: ActivX kinase probe assay (human PBMC); type: binding; settings: RSK1 domain1, read-out: percent inhibition
p38d, p38g = experiment: ActivX kinase probe assay (human PBMC); type: binding
MAP2K3 = MAP2K3 (Homo sapiens (Human), UniProt P46734); experiment: ActivX kinase probe assay (human PBMC); type: binding; settings: MAP2K3, read-out: percent inhibition
IRE1 = IRE1 (Homo sapiens (Human), UniProt O75460); experiment: ActivX kinase probe assay (human PBMC); type: binding; settings: IRE1, read-out: percent inhibition
SMG1 = SMG1 (Homo sapiens (Human), UniProt Q96Q15); experiment: ActivX kinase probe assay (human PBMC); type: binding; settings: SMG1, read-out: percent inhibition
RSK1 domain2 = RSK1 domain2 (Homo sapiens (Human), UniProt Q15418); experiment: ActivX kinase probe assay (human PBMC); type: binding; settings: RSK1 domain2, read-out: percent inhibition
LYN = LYN (Homo sapiens (Human), UniProt P07948); experiment: ActivX kinase probe assay (human PBMC); type: binding; settings: LYN, read-out: percent inhibition
MST3 = MST3 (Homo sapiens (Human), UniProt Q9Y6E0); experiment: ActivX kinase probe assay (human PBMC); type: binding; settings: MST3, read-out: percent inhibition
PI4KB = PI4KB (Homo sapiens (Human), UniProt Q9UBF8); experiment: ActivX kinase probe assay (human PBMC); type: binding; settings: PI4KB, read-out: percent inhibition
RSK2 domain1 = RSK2 domain1 (Homo sapiens (Human), UniProt P51812); experiment: ActivX kinase probe assay (human PBMC); type: binding; settings: RSK2 domain1, read-out: percent inhibition
RIPK3 = RIPK3 (Homo sapiens (Human), UniProt Q9Y572); experiment: ActivX kinase probe assay (human PBMC); type: binding; settings: RIPK3, read-out: percent inhibition
Erk5 = Erk5 (Homo sapiens (Human), UniProt Q13164); experiment: ActivX kinase probe assay (human PBMC); type: binding; settings: Erk5, read-out: percent inhibition
Sequence of Erk5 (Q13164 whole entry): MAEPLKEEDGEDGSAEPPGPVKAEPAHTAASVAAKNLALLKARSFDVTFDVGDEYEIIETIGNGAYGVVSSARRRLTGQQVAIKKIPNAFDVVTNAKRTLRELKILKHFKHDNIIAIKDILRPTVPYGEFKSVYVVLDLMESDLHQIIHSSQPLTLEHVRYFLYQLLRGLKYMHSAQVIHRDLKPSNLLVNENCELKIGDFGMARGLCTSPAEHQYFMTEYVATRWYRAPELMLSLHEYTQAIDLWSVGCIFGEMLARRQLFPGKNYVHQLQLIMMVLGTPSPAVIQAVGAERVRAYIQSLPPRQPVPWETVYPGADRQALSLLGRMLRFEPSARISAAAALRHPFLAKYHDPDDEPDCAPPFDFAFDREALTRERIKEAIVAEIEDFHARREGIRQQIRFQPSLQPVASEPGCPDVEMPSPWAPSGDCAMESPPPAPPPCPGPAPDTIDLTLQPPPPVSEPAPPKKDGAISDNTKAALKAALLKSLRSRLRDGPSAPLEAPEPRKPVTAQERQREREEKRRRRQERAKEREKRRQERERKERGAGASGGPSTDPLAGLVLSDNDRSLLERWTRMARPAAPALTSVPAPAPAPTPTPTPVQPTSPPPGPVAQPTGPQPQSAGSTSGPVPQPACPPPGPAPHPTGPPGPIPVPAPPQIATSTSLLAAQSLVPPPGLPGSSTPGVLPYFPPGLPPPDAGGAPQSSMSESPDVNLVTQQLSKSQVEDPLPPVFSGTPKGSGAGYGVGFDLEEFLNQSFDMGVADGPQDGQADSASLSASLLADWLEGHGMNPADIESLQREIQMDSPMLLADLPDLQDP

AKT1 = AKT1 (Homo sapiens (Human), UniProt P31749); experiment: ActivX kinase probe assay (human PBMC); type: binding; settings: AKT1, read-out: percent inhibition
LATS1 = LATS1 (Homo sapiens (Human), UniProt O95835); experiment: ActivX kinase probe assay (human PBMC); type: binding; settings: LATS1, read-out: percent inhibition
Sequence of LATS1 (O95835 whole entry): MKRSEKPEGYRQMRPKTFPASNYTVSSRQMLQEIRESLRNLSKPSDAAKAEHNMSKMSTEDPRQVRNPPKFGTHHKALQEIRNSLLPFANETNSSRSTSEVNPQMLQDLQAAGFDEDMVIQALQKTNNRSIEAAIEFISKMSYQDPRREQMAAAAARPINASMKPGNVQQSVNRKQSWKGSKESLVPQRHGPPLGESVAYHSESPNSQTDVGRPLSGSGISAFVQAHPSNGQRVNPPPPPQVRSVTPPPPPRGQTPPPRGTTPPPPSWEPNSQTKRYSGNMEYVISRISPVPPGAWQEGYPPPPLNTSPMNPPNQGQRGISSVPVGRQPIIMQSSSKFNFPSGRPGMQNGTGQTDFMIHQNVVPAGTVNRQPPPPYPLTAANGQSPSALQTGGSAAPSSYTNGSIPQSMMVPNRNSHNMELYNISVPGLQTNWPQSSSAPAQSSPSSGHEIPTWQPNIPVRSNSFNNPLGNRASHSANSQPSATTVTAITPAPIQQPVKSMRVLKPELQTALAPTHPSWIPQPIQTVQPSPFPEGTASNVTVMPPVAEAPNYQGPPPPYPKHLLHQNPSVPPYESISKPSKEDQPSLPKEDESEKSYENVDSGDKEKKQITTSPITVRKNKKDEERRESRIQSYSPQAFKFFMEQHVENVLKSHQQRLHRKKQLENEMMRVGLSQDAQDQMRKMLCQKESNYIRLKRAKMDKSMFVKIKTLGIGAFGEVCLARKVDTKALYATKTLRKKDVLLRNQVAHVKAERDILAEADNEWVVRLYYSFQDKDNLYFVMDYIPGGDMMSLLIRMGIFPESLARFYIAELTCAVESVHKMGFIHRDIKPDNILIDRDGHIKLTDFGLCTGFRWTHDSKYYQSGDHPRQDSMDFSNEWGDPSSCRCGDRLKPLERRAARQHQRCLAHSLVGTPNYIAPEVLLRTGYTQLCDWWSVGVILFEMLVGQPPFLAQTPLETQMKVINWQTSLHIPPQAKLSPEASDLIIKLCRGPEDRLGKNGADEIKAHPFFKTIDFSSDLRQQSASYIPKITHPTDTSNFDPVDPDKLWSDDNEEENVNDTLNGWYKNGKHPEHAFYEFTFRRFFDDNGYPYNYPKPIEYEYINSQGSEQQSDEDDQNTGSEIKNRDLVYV

CHK2 = CHK2 (Homo sapiens (Human), UniProt O96017); experiment: ActivX kinase probe assay (human PBMC); type: binding; settings: CHK2, read-out: percent inhibition
IKKa = IKKa (Homo sapiens (Human), UniProt O15111); experiment: ActivX kinase probe assay (human PBMC); type: binding; settings: IKKa, read-out: percent inhibition
RSK2 domain2 = RSK2 domain2 (Homo sapiens (Human), UniProt P51812); experiment: ActivX kinase probe assay (human PBMC); type: binding; settings: RSK2 domain2, read-out: percent inhibition
MAST3 = MAST3 (Homo sapiens (Human), UniProt O60307); experiment: ActivX kinase probe assay (human PBMC); type: binding; settings: MAST3, read-out: percent inhibition
KHS1 = KHS1 (Homo sapiens (Human), UniProt Q9Y4K4); experiment: ActivX kinase probe assay (human PBMC); type: binding; settings: KHS1, read-out: percent inhibition
NDR2 = NDR2 (Homo sapiens (Human), UniProt Q9Y2H1); experiment: ActivX kinase probe assay (human PBMC); type: binding; settings: NDR2, read-out: percent inhibition
MAP3K5 = MAP3K5 (Homo sapiens (Human), UniProt Q99683); experiment: ActivX kinase probe assay (human PBMC); type: binding; settings: MAP3K5, read-out: percent inhibition

Compound Cn1cc(-c2c[nH]c3ncnc(N4CCOCC4)c23)cn1 [Example 1, 5-(1-Methyl-1H-pyrazol-4-yl)-4-(morpholin-4-yl)-7H-pyrrolo[2,3-d]pyrimidine] has an inhibition at 0.1 µM (MARK3; 0.1 μM) of 1%, an inhibition at 1 µM (MARK3; 1 μM) of 29.1% and an inhibition at 0.1 µM (MSK1 domain1; 0.1 μM) of -7%. It also gave an inhibition at 1 µM (MSK1 domain1; 1 μM) of -30.4%, an inhibition at 0.1 µM (IKKe; 0.1 μM) of 2.6% and an inhibition at 1 µM (IKKe; 1 μM) of 17.7%. It also gave an inhibition at 0.1 µM (HPK1; 0.1 μM) of -9.7%, an inhibition at 1 µM (HPK1; 1 μM) of -14.9% and an inhibition at 0.1 µM (TLK1; 0.1 μM) of 7.8%. For the same compound, the inhibition at 1 µM (TLK1; 1 μM) was 2.7%, the inhibition at 0.1 µM (PIK3C3; 0.1 μM) was 23.3% and the inhibition at 1 µM (PIK3C3; 1 μM) was 4.8%. The percent inhibition (TAO1, TAO3; 0.1 μM) was −24%, the percent inhibition (TAO1, TAO3; 1 μM) was −14.9% and the inhibition at 0.1 µM (DNAPK; 0.1 μM) was -4.4%. It also gave an inhibition at 1 µM (DNAPK; 1 μM) of -30%, an inhibition at 0.1 µM (ILK; 0.1 μM) of -34% and an inhibition at 1 µM (ILK; 1 μM) of -56.6%. For the same compound, the inhibition at 0.1 µM (EphA1; 0.1 μM) was -9.5%, the inhibition at 1 µM (EphA1; 1 μM) was 19.6% and the inhibition at 0.1 µM (STLK5; 0.1 μM) was -1.5%. It also gave an inhibition at 1 µM (STLK5; 1 μM) of -46.5%, a percent inhibition (AKT2, AKT3; 0.1 μM) of 1.6% and a percent inhibition (AKT2, AKT3; 1 μM) of 10.7%. It also gave an IC50 [1] of 13 nM, an inhibition at 0.1 µM (MAP3K1; 0.1 μM) of -9.4% and an inhibition at 1 µM (MAP3K1; 1 μM) of 11.9%. The inhibition at 0.1 µM (RSK1 domain1; 0.1 μM) was 16.3%, the inhibition at 1 µM (RSK1 domain1; 1 μM) was 59.8% and the percent inhibition (p38d, p38g; 0.1 μM) was −37.3%. It also gave a percent inhibition (p38d, p38g; 1 μM) of −24%, an inhibition at 0.1 µM (MAP2K3; 0.1 μM) of 14.4% and an inhibition at 1 µM (MAP2K3; 1 μM) of -9%. The inhibition at 0.1 µM (IRE1; 0.1 μM) was -1.3%, the inhibition at 1 µM (IRE1; 1 μM) was -8% and the inhibition at 0.1 µM (SMG1; 0.1 μM) was -1.3%. The inhibition at 1 µM (SMG1; 1 μM) was -19.2%, the inhibition at 0.1 µM (RSK1 domain2; 0.1 μM) was -12.7% and the inhibition at 1 µM (RSK1 domain2; 1 μM) was 18.1%. It also gave an inhibition at 0.1 µM (LYN; 0.1 μM) of 3.8%, an inhibition at 1 µM (LYN; 1 μM) of 7.8% and an inhibition at 0.1 µM (MST3; 0.1 μM) of 10.9%. It also gave an inhibition at 1 µM (MST3; 1 μM) of 28.4%, an inhibition at 0.1 µM (PI4KB; 0.1 μM) of 34% and an inhibition at 1 µM (PI4KB; 1 μM) of 16.1%. For the same compound, the inhibition at 0.1 µM (RSK2 domain1; 0.1 μM) was -6.8%, the inhibition at 1 µM (RSK2 domain1; 1 μM) was 5.6% and the inhibition at 0.1 µM (RIPK3; 0.1 μM) was 5.6%. The inhibition at 1 µM (RIPK3; 1 μM) was -4.2%, the inhibition at 0.1 µM (Erk5; 0.1 μM) was -32.8% and the inhibition at 1 µM (Erk5; 1 μM) was -41.9%. For the same compound, the inhibition at 0.1 µM (AKT1; 0.1 μM) was 11.3%, the inhibition at 1 µM (AKT1; 1 μM) was 18.8% and the inhibition at 0.1 µM (LATS1; 0.1 μM) was 4.2%. For the same compound, the inhibition at 1 µM (LATS1; 1 μM) was -16.2%, the inhibition at 0.1 µM (CHK2; 0.1 μM) was 0.9% and the inhibition at 1 µM (CHK2; 1 μM) was 17.7%. The inhibition at 0.1 µM (IKKa; 0.1 μM) was -20%, the inhibition at 1 µM (IKKa; 1 μM) was -40.5% and the inhibition at 0.1 µM (RSK2 domain2; 0.1 μM) was 0.6%. For the same compound, the inhibition at 1 µM (RSK2 domain2; 1 μM) was 9.1%, the inhibition at 0.1 µM (MAST3; 0.1 μM) was 9% and the inhibition at 1 µM (MAST3; 1 μM) was -6.7%. It also gave an inhibition at 0.1 µM (KHS1; 0.1 μM) of 17.8%, an inhibition at 1 µM (KHS1; 1 μM) of 24.6% and an inhibition at 0.1 µM (NDR2; 0.1 μM) of 22.8%. The inhibition at 1 µM (NDR2; 1 μM) was 31.2%, the inhibition at 0.1 µM (MAP3K5; 0.1 μM) was 6.2% and the inhibition at 1 µM (MAP3K5; 1 μM) was 2.1%.
